Measured values as given in patent US4292317A, “1,4-Dihydro-quinoline-3-carboxylic acid derivatives, process for their preparation and compositions containing them” (Laboratorie Roger Bellon, priority 1977, dated 1981).
Converted amounts (≈) assume the structure as drawn.

Legend:
Assay type in all cases: cell-based
Arizona 6.211 = assay: M.I.C. in vitro, nutrient agar dilution; settings: 18 h; Table 2; Arizona 6.211 (Gram negative); read-out: M.I.C.
Method: (§1) After sterilisation at 120° C., the pH was 6.8.
(§2) The minimum inhibitory concentrations (M.I.C.) were determined by dilution of the test compounds in this mixture, the concentration ranging from 0.05 to 100 μg/cm^3 in a geometric progression with a factor of 2.
(§3) The inoculation of the dishes was carried out by means of a multiple inoculator with 10^-3 dilutions of 18 hour old broth cultures.
(§4) The dishes were placed in an oven at 37° C. and the readings were taken afer an incubation time of 18 hours. The M.I.C. was taken as the lowest concentration which inhibited a culture.

B. subtilis = assay: M.I.C. in vitro, nutrient agar dilution; settings: Bacillus subtilis, 18 h; Table 2; B. subtilis (Gram positive); read-out: M.I.C.
Method: as §1, §2, §3, §4

Bord. bronchis. 4.617 = assay: M.I.C. in vitro, nutrient agar dilution; settings: 18 h; Table 2; Bord. bronchis. 4.617 (Gram negative); read-out: M.I.C.
Method: as §1, §2, §3, §4

Esch. coli 111 B4 = assay: M.I.C. in vitro, nutrient agar dilution; settings: Escherichia coli, 18 h; Table 2; Esch. coli 111 B4 (Gram negative)
Method: as §1, §2, §3, §4

Esch. coli 54.127 O.M.S. = assay: M.I.C. in vitro, nutrient agar dilution; settings: Escherichia coli, 18 h; Table 2; Esch. coli 54.127 O.M.S. (Gram negative); read-out: M.I.C.
Method: as §1, §2, §3, §4

Esch. coli 95 I.S.M. = assay: M.I.C. in vitro, nutrient agar dilution; settings: Escherichia coli, 18 h; Table 2; Esch. coli 95 I.S.M. (Gram negative); read-out: M.I.C.
Method: as §1, §2, §3, §4

Klebs. pneum. 10.031 = assay: M.I.C. in vitro, nutrient agar dilution; settings: 18 h; Table 2; Klebs. pneum. 10.031 (Gram negative); read-out: M.I.C.
Method: as §1, §2, §3, §4

Pr. mirabilis Nig = assay: M.I.C. in vitro, nutrient agar dilution; settings: Proteus mirabilis, 18 h; Table 2; Pr. mirabilis Nig (Gram negative); read-out: M.I.C.
Method: as §1, §2, §3, §4

Pr. morganii A.236 = assay: M.I.C. in vitro, nutrient agar dilution; settings: Morganella morganii, 18 h; Table 2; Pr. morganii A.236 (Gram negative); read-out: M.I.C.
Method: as §1, §2, §3, §4

Pr. vulgaris 12-53 = assay: M.I.C. in vitro, nutrient agar dilution; settings: Proteus vulgaris, 1253, 18 h; Table 2; Pr. vulgaris 12-53 (Gram negative); read-out: M.I.C.
Method: as §1, §2, §3, §4

Providentia 0223 = assay: M.I.C. in vitro, nutrient agar dilution; settings: 18 h; Table 2; Providentia 0223 (Gram negative); read-out: M.I.C.
Method: as §1, §2, §3, §4

Ps. aeruginosa 72.345 = assay: M.I.C. in vitro, nutrient agar dilution; settings: Pseudomonas aeruginosa, 18 h; Table 2; Ps. aeruginosa 72.345 (Gram negative); read-out: M.I.C.
Method: as §1, §2, §3, §4

Ps. aeruginosa A.22 = assay: M.I.C. in vitro, nutrient agar dilution; settings: Pseudomonas aeruginosa, 18 h; Table 2; Ps. aeruginosa A.22 (Gram negative); read-out: M.I.C.
Method: as §1, §2, §3, §4

S. enteritidis Danysz = assay: M.I.C. in vitro, nutrient agar dilution; settings: Salmonella enterica, 18 h; Table 2; S. enteritidis Danysz (Gram negative); read-out: M.I.C.
Method: as §1, §2, §3, §4

S. oranienburg 1066 = assay: M.I.C. in vitro, nutrient agar dilution; settings: Salmonella enterica, 18 h; Table 2; S. oranienburg 1066 (Gram negative); read-out: M.I.C.
Method: as §1, §2, §3, §4

Serratia = assay: M.I.C. in vitro, nutrient agar dilution; settings: 18 h, Table 2, Berratia (Gram negative), read-out: M.I.C.
Method: as §1, §2, §3, §4

Sh. sonnei I.P.S. = assay: M.I.C. in vitro, nutrient agar dilution; settings: Shigella sonnei, 18 h; Table 2; Sh. sonnei I.P.S. (Gram negative); read-out: M.I.C.
Method: as §1, §2, §3, §4

Staph. 209 P = assay: M.I.C. in vitro, nutrient agar dilution; settings: 18 h; Table 2; Staph. 209 P (Gram positive); read-out: M.I.C.
Method: as §1, §2, §3, §4

Staph. 9.144 = assay: M.I.C. in vitro, nutrient agar dilution; settings: 18 h; Table 2; Staph. 9.144 (Gram positive); read-out: M.I.C.
Method: as §1, §2, §3, §4

Strepto A 561 = assay: M.I.C. in vitro, nutrient agar dilution; settings: 18 h; Table 2; Strepto A 561 (Gram positive)
Method: as §1, §2, §3, §4

Strepto D.M. 19 = assay: M.I.C. in vitro, nutrient agar dilution; settings: 18 h; Table 2; Strepto D.M. 19 (Gram positive); read-out: M.I.C.
Method: as §1, §2, §3, §4

Salm. typhi 0901 = assay: microbe, parasite or virus in culture; settings: Salmonella enterica, 18 h; Table 2; Salm. typhi 0901 (Gram negative)
Method: as §1, §2, §3, §4

## CCn1cc(C(=O)O)c(=O)c2cc(Cl)c(N3CCN(Cc4ccccc4)CC3)cc21 [Example 5, 7-(4-Benzylpiperazinyl)-6-chloro-1-ethyl-4-oxo-1,4-dihydro-quinoline-3-carboxylic acid]
Arizona 6.211
  MIC: 3.1 µg/mL (≈ 7.28 µM)
B. subtilis
  MIC: 0.4 µg/mL (≈ 0.939 µM)
Bord. bronchis. 4.617
  MIC: 12.5 µg/mL (≈ 29.3 µM)
Esch. coli 111 B4
  MIC: 3.1 µg/mL (≈ 7.28 µM)
Esch. coli 54.127 O.M.S.
  MIC: 6.2 µg/mL (≈ 14.6 µM)
Esch. coli 95 I.S.M.
  MIC: 3.1 µg/mL (≈ 7.28 µM)
Klebs. pneum. 10.031
  MIC: 0.4 µg/mL (≈ 0.939 µM)
Pr. mirabilis Nig
  MIC: 6.2 µg/mL (≈ 14.6 µM)
Pr. morganii A.236
  MIC: 3.1 µg/mL (≈ 7.28 µM)
Pr. vulgaris 12-53
  MIC: 6.2 µg/mL (≈ 14.6 µM)
Providentia 0223
  MIC: 50 µg/mL (≈ 117 µM)
Ps. aeruginosa 72.345
  MIC: 25 µg/mL (≈ 58.7 µM)
Ps. aeruginosa A.22
  MIC: 25 µg/mL (≈ 58.7 µM)
S. enteritidis Danysz
  MIC: 6.2 µg/mL (≈ 14.6 µM)
S. oranienburg 1066
  MIC: 100 µg/mL (≈ 235 µM)
Serratia
  MIC: 3.1 µg/mL (≈ 7.28 µM)
Sh. sonnei I.P.S.
  MIC: 1.6 µg/mL (≈ 3.76 µM)
Staph. 209 P
  MIC: 0.2 µg/mL (≈ 0.47 µM)
Staph. 9.144
  MIC: 0.8 µg/mL (≈ 1.88 µM)
Strepto A 561
  MIC: 6.2 µg/mL (≈ 14.6 µM)
Strepto D.M. 19
  MIC: 6.2 µg/mL (≈ 14.6 µM)
Salm. typhi 0901
  MIC: 6.2 µg/mL (≈ 14.6 µM)

## CCn1cc(C(=O)O)c(=O)c2cc(Cl)c(N3CCOCC3)cc21 [Example 7, 6-Chloro-1-ethyl-7-morpholino-4-oxo-1,4-dihydro-quinoline-3-carboxylic acid]
Arizona 6.211
  MIC: 1.6 µg/mL (≈ 4.75 µM)
B. subtilis
  MIC: 0.2 µg/mL (≈ 0.594 µM)
Bord. bronchis. 4.617
  MIC: 12.5 µg/mL (≈ 37.1 µM)
Esch. coli 111 B4
  MIC: 3.1 µg/mL (≈ 9.2 µM)
Esch. coli 54.127 O.M.S.
  MIC: 3.1 µg/mL (≈ 9.2 µM)
Esch. coli 95 I.S.M.
  MIC: 1.6 µg/mL (≈ 4.75 µM)
Klebs. pneum. 10.031
  MIC: 0.2 µg/mL (≈ 0.594 µM)
Pr. mirabilis Nig
  MIC: 1.6 µg/mL (≈ 4.75 µM)
Pr. morganii A.236
  MIC: 0.8 µg/mL (≈ 2.38 µM)
Pr. vulgaris 12-53
  MIC: 0.8 µg/mL (≈ 2.38 µM)
Providentia 0223
  MIC: > 100 µg/mL
Ps. aeruginosa 72.345
  MIC: 6.2 µg/mL (≈ 18.4 µM)
Ps. aeruginosa A.22
  MIC: 12.5 µg/mL (≈ 37.1 µM)
S. enteritidis Danysz
  MIC: 3.1 µg/mL (≈ 9.2 µM)
S. oranienburg 1066
  MIC: > 100 µg/mL
Serratia
  MIC: 0.8 µg/mL (≈ 2.38 µM)
Sh. sonnei I.P.S.
  MIC: 0.8 µg/mL (≈ 2.38 µM)
Staph. 209 P
  MIC: 0.2 µg/mL (≈ 0.594 µM)
Staph. 9.144
  MIC: 0.4 µg/mL (≈ 1.19 µM)
Strepto A 561
  MIC: 100 µg/mL (≈ 297 µM)
Strepto D.M. 19
  MIC: 50 µg/mL (≈ 148 µM)
Salm. typhi 0901
  MIC: 3.1 µg/mL (≈ 9.2 µM)
